According to US5290795A, “Substituted urea compound and use” (Novo Nordisk N/A, priority 1990, dated 1994):
pIC50: −log10 of the molar value.

How the values were obtained:
5-HT3 receptor [1] = molecular target: T1, 5-HT3 receptor (Mus musculus, UniProt P23979); test: 5-HT3 receptor binding to N1E-115 neuroblastoma cells (3H-Quipazine displacement); settings: for displacement of 3H-Quipazine binding: specificity of the assay, N1E-115 neuroblastoma cells, in words
T1 construct: Harvested cells were homogenized in Tris buffer; endogenous in cells; host or cells: N1E-115 mouse neuroblastoma cells
T1 sequence (P23979 24-489): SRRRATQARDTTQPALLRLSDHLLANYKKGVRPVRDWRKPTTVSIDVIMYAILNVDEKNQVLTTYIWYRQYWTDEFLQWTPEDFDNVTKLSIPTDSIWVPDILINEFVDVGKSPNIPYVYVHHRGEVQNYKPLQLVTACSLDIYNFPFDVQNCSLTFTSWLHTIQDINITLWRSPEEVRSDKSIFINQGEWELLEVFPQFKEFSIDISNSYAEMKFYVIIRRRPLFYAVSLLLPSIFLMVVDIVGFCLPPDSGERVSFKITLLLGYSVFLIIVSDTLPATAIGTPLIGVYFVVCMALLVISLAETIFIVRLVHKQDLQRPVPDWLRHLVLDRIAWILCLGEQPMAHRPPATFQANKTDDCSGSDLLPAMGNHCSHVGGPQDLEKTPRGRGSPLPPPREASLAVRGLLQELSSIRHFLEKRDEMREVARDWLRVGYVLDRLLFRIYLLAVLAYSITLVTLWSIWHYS
Protocol: 5-HT3 Receptor Binding to N1E-115 Neuroblastoma Cells
The binding of 3H-quipazine to N1E-115 neuroblastoma cells in-vitro was determined by a modification of the method of Hoyer and Neijt (Hoyer, D. and Neijt, H. C., 1988, Molecular Pharmacology, 33:303-309). […] The cells were grown to a density of 8-15×10^7 cells per bottle and harvested by vigorous shaking. Harvested cells were homogenized in Tris buffer (20 mm, pH=7.5) containing 154 mM NaCl using a Brinkmann Polytron. The homogenate was centrifuged at 900×g and the supernatant was used directly in the binding assay. The supernatant was diluted at a concentration of 2×10^6 cells per ml in Tris buffer. Binding assays consisted of 50 μL 3H-Quipazine (1 nM final concentration), 250 μL membrane suspension, and 200 μL drug or buffer. Nonspecific binding was determined by the addition of 10 μM MDL 72222. Tubes were incubated at […] for 60 minutes, followed by filtration through GFB filters under vacuum. The filters were then washed with ice-cold Tris buffer.

5-HT3 receptor [2] = molecular target: T2, 5-HT3 receptor (Cavia porcellus, UniProt O70212); test: Inhibition of 5-HT-induced contractions in isolated guinea pig ileum; type: cell-based; settings: methysergide 10^-6 M, 20 min incubation, 5-HT contact time 30 sec, 37° C., read-out: A2 (concentration of the antagonist giving a dose ratio of 2) (converted)
T2 construct: the terminal 15 cm of ileum removed, and 1.5-2.0 cm lengths prepared and mounted in 10 ml organ baths; from tissue; host or cells: isolated guinea pig terminal ileum
T2 sequence (O70212 24-490 limits assumed): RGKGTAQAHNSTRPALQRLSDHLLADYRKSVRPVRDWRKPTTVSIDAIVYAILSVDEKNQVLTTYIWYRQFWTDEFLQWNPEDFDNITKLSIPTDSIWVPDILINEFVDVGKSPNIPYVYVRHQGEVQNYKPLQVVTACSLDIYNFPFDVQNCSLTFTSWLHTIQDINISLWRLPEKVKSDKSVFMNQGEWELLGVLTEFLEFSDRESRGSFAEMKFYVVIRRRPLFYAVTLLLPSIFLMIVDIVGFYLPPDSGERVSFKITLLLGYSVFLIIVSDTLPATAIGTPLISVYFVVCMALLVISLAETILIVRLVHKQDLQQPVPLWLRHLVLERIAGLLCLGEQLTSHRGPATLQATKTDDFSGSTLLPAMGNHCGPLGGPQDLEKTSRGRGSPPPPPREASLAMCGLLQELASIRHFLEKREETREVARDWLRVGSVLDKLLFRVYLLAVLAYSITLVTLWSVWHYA
Protocol: Inhibition of 5-HT-Induced Contractions in Isolated Guinea Pig Ileum
Compounds of formula (I) were tested for their 5HT3 -antagonist activity using the following method:
5-HT produces contractions of the guinea pig ileum via 2 different receptors. 1) direct contractions via 5-HT2 receptors on the muscle, 2) indirect contractions via 5-HT3 receptors on intrinsic gut neurones, producing acetylcholine release. By administering 5-HT to lengths of ileum in the presence of methysergide (to block 5-HT2 receptors) you can assay 5-HT3 receptor activity.
Guinea pigs were killed by means of cervical dislocation the terminal 15 cm of ileum removed, and 1.5-2.0 cm lengths prepared and mounted in 10 ml organ baths containing calcium deficient tyrodes of the following composition (mM) NaCl (136.9); KCl (2.68); CaCl2 (0.9); MgCl2 (1.05); NaCO3 (11.9); NaH2 PO4 (0.42); glucose (5.55) and containing methysergide (10^-6 M) maintained at 37° C. and gassed with 95% O2 and 5% CO2. The mechanical activity of the muscle was measured by a HSE 351 isometric transducer connected via a HSE bridge amplifier to a potentiometric pen recorder. […]
The maximum response to acetylcholine for each tissue is measured and the responses to 5-HT calculated as percentage maximum of the acetylcholine (Ach) maximum response in that tissue. The peak of the 5-HT response is measured. […]

| SMILES | pIC50 (5-HT3 receptor [1]) | Kb (5-HT3 receptor [2]) [µM] | displacement of 3H-Quipazine binding (5-HT3 receptor [1]) |
| --- | --- | --- | --- |
| CN1[C@@H]2CCC[C@H]1C[C@@H](NC(=O)Nc1ccsc1-c1nc(C3CC3)no1)C2 [Example 4, N-(2-(3-Cyclopropyl-1,2,4-oxadiazol-5-yl)-3-thienyl)-N^1 - (endo-9-methyl-9-azabicyclo[3.3.1]non-3yl)urea] | 8.17 | 103 |  |
| CCCCc1noc(-c2sccc2NC(=O)N[C@H]2C[C@H]3CCC[C@@H](C2)N3C)n1 [Example 7, N-(2-(3-Butyl-1,2,4-oxadiazol-5-yl)-3-thienyl)-N^1-(endo-9-methyl-9-azabicyclo[3.3.1]non-3-yl)urea] | 8.64 | 24.8 |  |
| CCCN(CCC)C1CCc2cccc(O)c2C1 (stereo not shown) [Example 8-OH-DPAT] |  |  | inability |
| CN1[C@@H]2CC[C@H]1C[C@@H](OC(=O)c1c[nH]c3ccccc13)C2 [ICS 205-930] |  |  | potent displacers |
| CN1[C@@H]2CC[C@H]1C[C@@H](OC(=O)c1cc(Cl)cc(Cl)c1)C2 [MDL 72222] |  |  | potent displacers |
| O=C(c1ccc(F)cc1)C1CCN(CCn2c(=O)[nH]c3ccccc3c2=O)CC1 [ketanserin] |  |  | inability |
| c1ccc2nc(N3CCNCC3)ccc2c1 [quipazine] |  |  | potent displacers |
| COc1cc(N)c(Cl)cc1C(=O)NC1CN2CCC1CC2 (stereo not shown) [zacopride] |  |  | potent displacers |
